Patent US7662820B2, “Dipterinyl calcium pentahydrate (DCP) and therapeutic methods based thereon” (SanRX Pharmaceuticals, Inc., priority 2006, dated 2010)

What was measured:
[1] = tested on: MDA-MB-231 human tumor xenographs; experiment: Antitumor efficacy in nude mice with MDA-MB-231 human tumor xenographs; format: in vivo, athymic nude (nu/nu) mice; details: for anti tumor efficacy compared with original CaPterin, (1:4 mol:mol) calcium pterin / inhibition of MDA-MB-231 xenograph growth (Relative Tumor Volume): oral gavage once daily, FIG. 1; for inhibition of MDA-MB-231 xenograph growth (Relative Tumor Volume): nude mice, versus untreated control
Source text: FIGS. 1A and 1B (with SEMs): Twenty-nine athymic nude (nu/nu) female mice, ages 3-4 weeks, were inoculated with 10×10^6 MDA-MB-231 cancer cells subcutaneously into the right flank of each mouse. […] Four mice were assigned as controls. Four mice with outlying tumor sizes or non-tumor takes were subsequently excluded. […] The control group was untreated.
Cell Line Propagation and Inoculation: The MDA-MB-231 human breast tumor cell lines were supplied by SRI International (Menlo Park, Calif.) and propagated using standard in vitro cell expansion methods. Briefly, cells were grown in L-15 media from Gibco (Cat. No. 11415-064) supplemented with 2 mM L-Glutamine and 10% Fetal Bovine Serum (FBS). The cells were cultured in an incubator with 5% C02, 37.50C, and 80% humidity. Cells were harvested with 0.25% (w/v) Trypsin-0.03% (w/v) EDTA solution. Cells were prepared for injection by standard methods to appropriate concentrations. Animals were temporarily restrained but not anesthetized for the inoculation of the tumor cells. Animals were subcutaneously injected with the tumor cells in a 100-200 μl volume.
Control groups were untreated. Daily dosing was for 7 days per week. Animals were restrained but not anesthetized for oral dosing.
Tumor Growth Rate Measurements: Each animal was individually tracked for tumor growth by external caliper measurements of protruding tumor. Primary tumor sizes were measured using calipers and an approximate tumor volume calculated using the formula 1/2 (a×b2), where b was the smaller of two perpendicular diameters.
For each group, the mean and standard error of the mean (SEM) of the ratio V/Vo, Relative Tumor Volume (RTV), were plotted as a function of treatment time after inoculation. V0 was the tumor volume at Day 0, when treatment began. Time course statistical analyses based upon repeated measures ANOVA models were used (StatView SE+Graphics, v 1.03).

[2] = nude mice treated with DCP, FIG. 3
Experimental: Twenty-nine athymic nude were each injected subcutaneously with 10×10^6 MDA-MB-231 cancer cells into the right flank. When tumors reached 3-5 mm in size, the mice were divided into five treatment groups of five each and a control group of four mice. Four of these with outlying tumor sizes or non-tumor takes were excluded shortly after treatment began: one each from the (1:4 mol:mol) calcium pterin group, the (1:2 mol:mol) calcium pterin group, the DCP (69 mg/kg/day) group, and one from the control group. Experimental groups were treated by oral gavage once daily with the indicated test suspensions or solutions. Control groups were untreated. Daily dosing was for 7 days per week. Animals were restrained but not anesthetized for oral dosing. Tumors were measured twice weekly with calipers and body weights taken twice weekly on the day of tumor measurements. Blood was collected from all animals via cardiac puncture at termination (after 70 to 98 days of treatment) and processed to EDTA plasma for analysis.

tumor = details: in vivo; cited from earlier work
sarcoma = details: mice; cited from earlier work

With `Nc1nc([O-])c2nccnc2n1.Nc1nc([O-])c2nccnc2n1.[Ca+2]` [DCP, dipterinyl calcium pentahydrate] the “anti tumor efficacy compared with original CaPterin, (1:4 mol:mol) calcium pterin” value ([1]; DCP at 23 mg/kg/day) was “significantly greater anti tumor efficacy”, the “anti tumor efficacy compared with original CaPterin, (1:4 mol:mol) calcium pterin” value ([1]; DCP at 69 mg/kg/day) was “comparable efficacy” and the “inhibition of MDA-MB-231 xenograph growth (Relative Tumor Volume)” value [1] was “significantly inhibit”. The “inhibition of MDA-MB-231 xenograph tumors compared with (1:4 mol:mol) calcium pterin [CaPterin]” value ([1]; oral, dose not stated (conclusion)) was “significantly greater” and the weight loss [2] was “no significant weight loss”.

In the case of `Nc1nc2[nH]c(=O)cnc2c(=O)[nH]1` [Isoxanthopterin], the tumor growth (tumor) is listed as “inhibit tumor growth”.

In the case of `Nc1nc(=O)c2[nH]c(=O)cnc2[nH]1` [Xanthopterin], the sarcoma growth (sarcoma) is listed as “inhibit sarcoma growth”.

With `O.O.[Ca+2].[Cl-].[Cl-]` [calcium chloride dihydrate, reference compound] the “inhibition of MDA-MB-231 xenograph growth (Relative Tumor Volume)” value [1] was “significantly inhibit”.
